Values quoted from earlier work, collected in patent US20070237796A1, “Stable High Pl Hydrogel Compositions” (priority 2003, published 2007).

Conditions: not given

| pKa | Structure (SMILES) |
| --- | --- |
| 12.39 | O=C[C@H](O)[C@@H](O)[C@@H](O)[C@H](O)CO [Galactose] |
| 11.98 | OC[C@H]1O[C@@H](O[C@H]2[C@H](O)[C@@H](O)C(O)O[C@@H]2CO)[C@H](O)[C@@H](O)[C@H]1O (stereo partly drawn) [Lactose] |
| 12.15 | O=C[C@H](O)[C@@H](O)[C@H](O)CO [Xylose] |
| 13.71 | CO[C@H]1O[C@H](CO)[C@@H](O)[C@H](O)[C@H]1O [α-Methyl glucoside] |

Same assay, conditions: secondary OH

| Structure (SMILES) | pKa |
| --- | --- |
| OC[C@H]1O[C@@H]2O[C@H]3[C@H](O)[C@@H](O)[C@@H](O[C@H]4[C@H](O)[C@@H](O)[C@@H](O[C@H]5[C@H](O)[C@@H](O)[C@@H](O[C@H]6[C@H](O)[C@@H](O)[C@@H](O[C@H]7[C@H](O)[C@@H](O)[C@@H](O[C@H]8[C@H](O)[C@@H](O)[C@@H](O[C@H]1[C@H](O)[C@H]2O)O[C@@H]8CO)O[C@@H]7CO)O[C@@H]6CO)O[C@@H]5CO)O[C@@H]4CO)O[C@@H]3CO [β-cyclodextrin] | 12.20 (secondary OH) |
| OC[C@H]1O[C@@H]2O[C@H]3[C@H](O)[C@@H](O)[C@@H](O[C@H]4[C@H](O)[C@@H](O)[C@@H](O[C@H]5[C@H](O)[C@@H](O)[C@@H](O[C@H]6[C@H](O)[C@@H](O)[C@@H](O[C@H]7[C@H](O)[C@@H](O)[C@@H](O[C@H]8[C@H](O)[C@@H](O)[C@@H](O[C@H]9[C@H](O)[C@@H](O)[C@@H](O[C@H]1[C@H](O)[C@H]2O)O[C@@H]9CO)O[C@@H]8CO)O[C@@H]7CO)O[C@@H]6CO)O[C@@H]5CO)O[C@@H]4CO)O[C@@H]3CO [γ-cyclodextrin] | 12.05 (secondary OH) |
